According to US20110040086A1, “Novel Beta-Lactam Antibiotics, Methods for Their Production, and Their Use” (DRITTE PATENTPORTFOLIO BETEILIGUNGSGESELLSCHAFT MB, priority 2007, published 2011):

Columns and labels:
[1] = tested on: S. aureus ATCC 6538; assay: agar diffusion test (Test System II, multi-resistant germs); format: cell-based, Staphylococcus aureus
In short: (§1)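 Discs loaded with 10, 50 or 100 μg compound (dissolved in methanol or distilled water) placed on Müller-Hinton agar II inoculated with McFarland 0.5 suspension. Incubated 18-20 h at 37 °C. Inhibition zone diameter read as activity.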

[2] = tested on: S. aureus 38418; assay: as above; format: cell-based, Staphylococcus aureus
In short: as §1

[3] = tested on: Bacillus megaterium SBUG 1152; assay: agar diffusion test (Test System 1, antimicrobial effect); format: cell-based
In short: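 Paper discs loaded with 10 μg, 50 μg or 100 μg of test substance (methanol or water solution) placed on nutrient agar seeded with 10^6 cells of a 17-h B. megaterium culture. After 20 h at 37° C., zone of inhibition measured as diameter in mm.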

[4] = tested on: S. epidermidis 125; assay: agar diffusion test (Test System II, multi-resistant germs); format: cell-based, Staphylococcus epidermidis
In short: as §1

[5] = tested on: Enterococcus faecalis 769; assay: as above; format: cell-based; parameters: key: r = resistant (no detectable zone of inhibition)
In short: as §1

[6] = tested on: Staphylococcus aureus 315; assay: as above; format: cell-based; parameters: key: r = resistant (no detectable zone of inhibition)
In short: as §1

[7] = tested on: Staphylococcus aureus ATCC 6538; assay: mouse infected with Staphylococcus aureus infection model (survival); format: in vivo, BALB/c mice; settings: 2 × 0.5 mg (25 mg/kg) i.p.
In short: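 Survival model: S. aureus grown to extinction 0.6 at 550 nm and injected i.p. (10 μl/g body weight) into cyclophosphamide-pretreated BALB/c mice (250 then 100 mg/kg i.p.), ≥3 animals per arm. Test antibiotic dosed i.p. at 30 min and again later at the same concentration, vehicle PBS/3% DMSO.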

[8] = tested on: S. aureus 33490; assay: agar diffusion test (Test System II, multi-resistant germs); format: cell-based, Staphylococcus aureus; parameters: key: r = resistant (no detectable zone of inhibition)
In short: as §1

[9] = tested on: S. aureus North Germany strain; assay: as above; format: cell-based, Staphylococcus aureus; parameters: key: r = resistant (no detectable zone of inhibition)
In short: as §1

[10] = tested on: S. aureus 520; assay: as above; format: cell-based, Staphylococcus aureus; parameters: key: r = resistant (no detectable zone of inhibition)
In short: as §1

[11] = tested on: S. aureus 526; assay: as above; format: cell-based, Staphylococcus aureus; parameters: key: r = resistant (no detectable zone of inhibition)
In short: as §1

[12] = tested on: S. aureus 36881; assay: as above; format: cell-based, Staphylococcus aureus; parameters: key: r = resistant (no detectable zone of inhibition)
In short: as §1

[13] = tested on: S. aureus 34289; assay: as above; format: cell-based, Staphylococcus aureus; parameters: key: r = resistant (no detectable zone of inhibition)
In short: as §1

[14] = tested on: S. aureus 39105; assay: as above; format: cell-based, Staphylococcus aureus; parameters: key: r = resistant (no detectable zone of inhibition)
In short: as §1

Compound: O=C(O)C1=C(Cl)CSC2C(NC(=O)C(NC3=C(C(=O)NCCO)C(=O)C=CC3=O)c3ccccc3)C(=O)N12 (stereo not shown) [1i, 3-chlorine-7-{2-[2-(2-hydroxyethylcarbamoyl)-3,6-dioxocyclohexa-1,4-dienylamino]-2-phenyl-acetylamino}-8-oxo-1-thia-5-azabicyclo[4.2.0]oct-3-en-4-carboxylic acid]
- Diameter of zone of inhibition ([1]; Quantity n 0.029): 26 mm
- Diameter of zone of inhibition ([1]; Quantity n 0.14): 34 mm
- Diameter of zone of inhibition ([1]; Quantity n 0.29): 36 mm
- Diameter of zone of inhibition ([2]; Quantity n [mol] 0.029): 20 mm
- Diameter of zone of inhibition ([2]; Quantity n [mol] 0.14): 30 mm
- Diameter of zone of inhibition ([2]; Quantity n [mol] 0.29): 34 mm
- Diameter of zone of inhibition ([3]; Quantity n 0.029): 26 mm
- Diameter of zone of inhibition ([3]; Quantity n 0.14): 32 mm
- Diameter of zone of inhibition ([3]; Quantity n 0.29): 34 mm
- Diameter of zone of inhibition ([4]; Quantity n 0.029): 20 mm
- Diameter of zone of inhibition ([4]; Quantity n 0.14): 28 mm
- Diameter of zone of inhibition ([4]; Quantity n 0.29): 32 mm
- Diameter of zone of inhibition ([5]; Quantity n 0.029): r
- Diameter of zone of inhibition ([5]; Quantity n 0.14): r
- Diameter of zone of inhibition ([5]; Quantity n 0.29): r
- Diameter of zone of inhibition ([6]; Quantity n 0.029): r
- Diameter of zone of inhibition ([6]; Quantity n 0.14): 10 mm
- Diameter of zone of inhibition ([6]; Quantity n 0.29): 14 mm
- Survival/tested mice n/n [7]: 12/12
- Diameter of zone of inhibition ([8]; Quantity n [μmol] 0.029): 14 mm
- Diameter of zone of inhibition ([8]; Quantity n [μmol] 0.14): 22 mm
- Diameter of zone of inhibition ([8]; Quantity n [μmol] 0.29): 26 mm
- Diameter of zone of inhibition ([9]; Quantity n 0.029): r
- Diameter of zone of inhibition ([9]; Quantity n 0.14): 12 mm
- Diameter of zone of inhibition ([9]; Quantity n 0.29): 16 mm
- Diameter of zone of inhibition ([10]; Quantity n [mol] 0.029): r
- Diameter of zone of inhibition ([10]; Quantity n [mol] 0.14): r
- Diameter of zone of inhibition ([10]; Quantity n [mol] 0.29): r
- Diameter of zone of inhibition ([11]; Quantity n 0.029): r
- Diameter of zone of inhibition ([11]; Quantity n 0.14): r
- Diameter of zone of inhibition ([11]; Quantity n 0.29): r
- Diameter of zone of inhibition ([12]; Quantity n 0.029): r
- Diameter of zone of inhibition ([12]; Quantity n 0.14): 12 mm
- Diameter of zone of inhibition ([12]; Quantity n 0.29): 18 mm
- Diameter of zone of inhibition ([13]; Quantity n [mol] 0.029): r
- Diameter of zone of inhibition ([13]; Quantity n [mol] 0.14): r
- Diameter of zone of inhibition ([13]; Quantity n [mol] 0.29): r
- Diameter of zone of inhibition ([14]; Quantity n 0.029): r
- Diameter of zone of inhibition ([14]; Quantity n 0.14): 18 mm
- Diameter of zone of inhibition ([14]; Quantity n 0.29): 22 mm
